Experimental data taken from the supplement of paper PMC10331698.
± gives the standard deviation of the averaged measurements.

How the values were obtained:
Experiment in all cases: level (log10 ratio to DMSO vehicle control); higher = higher biomarker level / cell amount than vehicle control
Settings in all cases: in DMSO
[1] = compound: FC(F)(F)C(F)(F)C(F)(F)CC1CO1 [1H,1H-Heptafluorobutyl epoxide]
Description: (§1)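 BioMAP Diversity Plus panel of 12 human primary cell co-culture systems (3C, 4H, LPS, SAg, BT, BF4T, BE3C, CASM3C, HDF3CGF, KF3CT, MyoF, Mphg). Compounds were added 1 h before stimulation and left for 24 h (MyoF 48 h; BT 72 h for soluble read-outs or 6 d for IgG). Biomarkers were read by ELISA, cytotoxicity by SRB, PBMC viability and proliferation by Alamar Blue. Each well value was divided by the mean of 8 DMSO control wells on the same plate and log10 transformed; duplicate blinded samples were tested at 4 concentrations.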

[2] = compound: O=S(=O)(O)CCC(F)(F)C(F)(F)C(F)(F)C(F)(F)C(F)(F)C(F)(F)F [6:2 Fluorotelomer sulfonic acid]
Description: as §1

[3] = compound: O=S(=O)(O)C(F)(F)C(F)(F)C(F)(F)C(F)(F)C(F)(F)C(F)(F)C(F)(F)C(F)(F)C(F)(F)C(F)(F)F [Sodium perfluorodecanesulfonate]
Description: as §1

[4] = compound: NC(=O)C(F)(F)C(F)(F)C(F)(F)C(F)(F)C(N)=O [Octafluoroadipamide]
Description: as §1

[5] = compound: OCC(F)(F)C(F)(F)C(F)(F)CO [Hexafluoroamylene glycol]
Description: as §1

[6] = compound: O=S(=O)(Cl)C(F)(F)C(F)(F)C(F)(F)C(F)(F)C(F)(F)C(F)(F)C(F)(F)C(F)(F)F [Perfluoro-1-octanesulfonyl chloride]
Description: as §1

Row | Test System | level (log10) ([1]; 6700 nM) | level (log10) ([1]; 20000 nM) | level (log10) ([1]; 60000 nM) | level (log10) ([2]; 6700 nM) | level (log10) ([2]; 20000 nM) | level (log10) ([2]; 60000 nM) | level (log10) ([3]; 1500 nM) | level (log10) ([3]; 4400 nM) | level (log10) ([3]; 13000 nM) | level (log10) ([3]; 40000 nM) | level (log10) ([4]; 6700 nM) | level (log10) ([4]; 20000 nM) | level (log10) ([4]; 60000 nM) | level (log10) ([5]; 6700 nM) | level (log10) ([5]; 20000 nM) | level (log10) ([5]; 60000 nM) | level (log10) ([6]; 6700 nM) | level (log10) ([6]; 20000 nM) | level (log10) ([6]; 60000 nM)
1 | MyoF:MMP-1 | 0.01 ± 0.013 | -0.013 ± 0.051 | 0.0455 ± 0.1 | -0.018 ± 0.021 | -0.058 ± 0.0042 | -0.0145 ± 0.047 | 0.038 ± 0.1 | -0.022 ± 0.055 | -0.012 ± 0.02 | 0.0165 ± 0.064 | 0.0115 ± 0.036 | -0.0085 ± 0.0078 | 0.0325 ± 0.079 | -0.0245 ± 0.011 | -0.0525 ± 0.019 | -0.0115 ± 0.0092 | -0.013 ± 0.017 | -0.0095 ± 0.0092 | 0.0705 ± 0.061
2 | MyoF:PAI-I | -0.005 ± 0.024 | -0.0105 ± 0.012 | 0 ± 0.016 | -0.0035 ± 0.0021 | -0.011 ± 0.0014 | -0.0035 ± 0.015 | 0.019 ± 0.02 | 0.0335 ± 0.029 | 0.0505 ± 0.0035 | 0.063 ± 0.0085 | -0.008 ± 0.027 | 0.0045 ± 0.0035 | 0.009 ± 0.0042 | -0.0045 ± 0.0064 | -0.0105 ± 0.00071 | 0.01 ± 0.011 | -0.018 ± 0.016 | -0.0325 ± 0.016 | -0.0415 ± 0.013
3 | MyoF:SRB | -0.006 ± 0.017 | -0.0045 ± 0.0021 | -0.002 ± 0.0057 | -0.002 ± 0.0014 | 0.0005 ± 0.0092 | -0.0015 ± 0.0021 | 0.0205 ± 0.016 | 0.029 ± 0.0042 | 0.0115 ± 0.012 | -0.018 ± 0.0085 | -0.004 ± 0.0028 | -0.01 ± 0.0042 | -0.0055 ± 0.0078 | 0.002 ± 0.0028 | -0.0045 ± 0.0035 | -0.002 ± 0.0057 | 0.005 ± 0.014 | -0.009 | -0.0695 ± 0.0092
4 | MyoF:alpha-SM Actin | 0.012 ± 0.028 | -0.0095 ± 0.039 | 0.0125 ± 0.08 | 0.016 ± 0.018 | 0.001 ± 0.021 | -0.02 ± 0.082 | 0.01 ± 0.0057 | -0.0065 ± 0.013 | 0.006 ± 0.025 | 0.0175 ± 0.0021 | 0.022 ± 0.061 | 0.0315 ± 0.056 | 0.0385 ± 0.032 | 0.024 ± 0.0085 | 0.0155 ± 0.013 | 0.025 ± 0.02 | 0.0635 ± 0.0064 | 0.0665 ± 0.032 | -0.0065 ± 0.03
5 | MyoF:bFGF | -0.0035 ± 0.0035 | -0.002 ± 0.0028 | -0.0025 ± 0.015 | -0.0065 ± 0.0078 | 0.019 ± 0.013 | 0.0235 ± 0.044 | 0.0025 ± 0.005 | 0.033 | 0.015 ± 0.0057 | 0.023 ± 0.011 | -0.0115 ± 0.015 | -0.014 ± 0.011 | 0.0135 ± 0.0078 | -0.007 ± 0.017 | 0.006 ± 0.0085 | 0.0125 ± 0.019 | -0.007 ± 0.014 | -0.039 ± 0.0014 | -0.029 ± 0.034
